Assay results as given in publication PMC6001238, “Iterative Chemical Engineering of Vancomycin Leads to Novel Vancomycin Analogs With a High in Vitro Therapeutic Index” (Frontiers in Microbiology, 2018).
≈ marks a conversion by molar mass, not a printed value.

How the values were obtained:
[1] = system: human cervix carcinoma (HeLa) cells; assay: Cytostatic activity, HeLa cell proliferation; type: cell-based; conditions: mean ± SD of three experiments; highest concentration tested 250 µM; 4 days; read-out: Toxicity (IC50) HeLa
In short: (§1)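 Test compounds, serially diluted, received an equal volume of cell suspension at 300,000–500,000 cells/mL. After 37°C incubation (2 days for L1210, 3 for CEM, 4 for HeLa), cells were enumerated by Coulter counting and 50%-inhibitory concentrations calculated per cell type.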

S. aureus VRSA = assay: MIC, broth microdilution, vancomycin-resistant S. aureus (VRSA); type: cell-based, Staphylococcus aureus; conditions: for MIC: Staphylococcus aureus VRSA, read-out: MIC; for MIC-fold improvement vs. vancomycin: VRSA, ratio of MIC of vancomycin and MIC of analogue
In short: (§2)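 Read-out: lowest concentration inhibiting growth in broth microdilution, CLSI method. Water and broth-only wells acted as controls; in one case 10 μM vancomycin (final) was present with the compound.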

MRSA KS6 = assay: MIC, broth microdilution, MRSA KS6; type: cell-based, Staphylococcus aureus; conditions: for MIC-fold improvement vs. vancomycin: MRSA KS6, ratio of MIC of vancomycin and MIC of analogue; for MIC: Staphylococcus aureus MRSA KS6, read-out: MIC
In short: as §2

E. faecalis VRE 29 = assay: MIC, broth microdilution, vancomycin-resistant E. faecalis VRE 29 (VanA); type: cell-based, Enterococcus faecalis; conditions: for MIC: Enterococcus faecalis VRE 29 (vancomycin-resistant), read-out: MIC; for MIC-fold improvement vs. vancomycin: VRE 29, ratio of MIC of vancomycin and MIC of analogue
In short: as §2

E. faecalis VRE 6 = assay: MIC, broth microdilution, vancomycin-resistant E. faecalis VRE 6 (VanA); type: cell-based, Enterococcus faecalis; conditions: for MIC: Enterococcus faecalis VRE 6 (vancomycin-resistant), read-out: MIC; for MIC-fold improvement vs. vancomycin: VRE 6, ratio of MIC of vancomycin and MIC of analogue
In short: as §2

E. faecalis VRE 53 = assay: MIC, broth microdilution, vancomycin-resistant E. faecalis VRE 53 (VanA); type: cell-based, Enterococcus faecalis; conditions: for MIC: Enterococcus faecalis VRE 53 (vancomycin-resistant), read-out: MIC; for MIC-fold improvement vs. vancomycin: VRE 53, ratio of MIC of vancomycin and MIC of analogue
In short: as §2

[2] = system: S. aureus VSSA (ATCC 6538); assay: MIC, broth microdilution, vancomycin-sensitive S. aureus (VSSA/MSSA, ATCC 6538); type: cell-based, Staphylococcus aureus; conditions: for MIC: Staphylococcus aureus VSSA, read-out: MIC; for MIC-fold improvement vs. vancomycin: VSSA, ratio of MIC of vancomycin and MIC of analogue
In short: as §2

[3] = system: human T-lymphocyte (CEM) cells; assay: Cytostatic activity, CEM cell proliferation; type: cell-based; conditions: mean ± SD of three experiments; highest concentration tested 250 µM; 3 days; read-out: Toxicity (IC50) CEM
In short: as §1

MRSA KS2 = assay: MIC, broth microdilution, MRSA KS2; type: cell-based, Staphylococcus aureus; conditions: for MIC-fold improvement vs. vancomycin: MRSA KS2, ratio of MIC of vancomycin and MIC of analogue; for MIC: Staphylococcus aureus MRSA KS2, read-out: MIC
In short: as §2

MRSA KS1 = assay: MIC, broth microdilution, MRSA KS1; type: cell-based, Staphylococcus aureus; conditions: for MIC-fold improvement vs. vancomycin: MRSA KS1, ratio of MIC of vancomycin and MIC of analogue; for MIC: Staphylococcus aureus MRSA KS1, read-out: MIC
In short: as §2

[4] = system: Murine leukemia (L1210) cells; assay: Cytostatic activity, L1210 cell proliferation; type: cell-based; conditions: mean ± SD of three experiments; highest concentration tested 250 µM; 2 days; read-out: Toxicity (IC50) L1210
In short: as §1

E. faecalis VRE 37 = assay: MIC, broth microdilution, vancomycin-resistant E. faecalis VRE 37 (VanA); type: cell-based, Enterococcus faecalis; conditions: for MIC: Enterococcus faecalis VRE 37 (vancomycin-resistant), read-out: MIC; for MIC-fold improvement vs. vancomycin: VRE 37, ratio of MIC of vancomycin and MIC of analogue
In short: as §2

E. faecalis VSE 1 = assay: MIC, broth microdilution, vancomycin-sensitive E. faecalis (VSE 1); type: cell-based, Enterococcus faecalis; conditions: for MIC: Enterococcus faecalis VSE 1 (vancomycin-sensitive), read-out: MIC; for MIC-fold improvement vs. vancomycin: VSE 1, ratio of MIC of vancomycin and MIC of analogue
In short: as §2

S. aureus VISA/HIP5827 = assay: MIC, broth microdilution, vancomycin-intermediate S. aureus VISA HIP5827; type: cell-based, Staphylococcus aureus; conditions: for MIC: Staphylococcus aureus VISA/HIP5827, read-out: MIC; for MIC-fold improvement vs. vancomycin: VISA/HIP5827, ratio of MIC of vancomycin and MIC of analogue
In short: as §2

MRSA KS89 = assay: MIC, broth microdilution, MRSA KS89; type: cell-based, Staphylococcus aureus; conditions: for MIC-fold improvement vs. vancomycin: MRSA KS8, ratio of MIC of vancomycin and MIC of analogue; for MIC: Staphylococcus aureus MRSA KS8, read-out: MIC
In short: as §2

[5] = system: L1210, CEM and HeLa cell lines; assay: Cytostatic activity, average or summary over L1210, CEM and HeLa; type: cell-based; conditions: average of L1210, CEM and HeLa; read-out: Toxicity (IC50) Average
In short: as §1

Compound | IC50 [1] [µM] | MIC (S. aureus VRSA) [µM] | MIC-fold improvement vs. vancomycin (S. aureus VRSA) | MIC-fold improvement vs. vancomycin (MRSA KS6) | MIC (MRSA KS6) [µM] | MIC (E. faecalis VRE 29) [µM] | MIC-fold improvement vs. vancomycin (E. faecalis VRE 29) | MIC (E. faecalis VRE 6) [µM] | MIC-fold improvement vs. vancomycin (E. faecalis VRE 6) | MIC (E. faecalis VRE 53) [µM] | MIC-fold improvement vs. vancomycin (E. faecalis VRE 53) | MIC [2] [µM] | MIC-fold improvement vs. vancomycin [2] | IC50 [3] [µM] | MIC-fold improvement vs. vancomycin (MRSA KS2) | MIC (MRSA KS2) [µM] | MIC-fold improvement vs. vancomycin (MRSA KS1) | MIC (MRSA KS1) [µM] | IC50 [4] [µM] | MIC (E. faecalis VRE 37) [µM] | other results
CNC(CC(C)C)C(=O)NC1C(=O)NC(CC(N)=O)C(=O)NC2C(=O)NC3C(=O)NC(C(=O)NC(C(=O)NCCCNC(=O)c4ccc5cc(NS(=O)(=O)c6ccc(C)cc6)ccc5c4)c4cc(O)cc(O)c4-c4cc3ccc4O)C(O)c3ccc(c(Cl)c3)Oc3cc2cc(c3OC2OC(CO)C(O)C(O)C2OC2CC(C)(N)C(O)C(C)O2)Oc2ccc(cc2Cl)C1O (centres unmarked) [Vanc-65] | 54 ± 45 | 0.39 (≈ 0.713 µg/mL) | 256 | 2 | 0.39 (≈ 0.713 µg/mL) | 6.25 (≈ 11.4 µg/mL) | 64 | 3.13 (≈ 5.72 µg/mL) | 64 | 25 (≈ 45.7 µg/mL) | 16 | 0.39 (≈ 0.713 µg/mL) | 2 | ≥ 250 | 4 | 0.20 (≈ 0.366 µg/mL) | 1 | 0.78 (≈ 1.43 µg/mL) | > 250 | 6.25 (≈ 11.4 µg/mL) | MIC-fold improvement vs. vancomycin (E. faecalis VRE 37): 64; MIC (E. faecalis VSE 1): 0.39 µM (≈ 0.713 µg/mL); MIC-fold improvement vs. vancomycin (E. faecalis VSE 1): 4; MIC (S. aureus VISA/HIP5827): 0.78 µM (≈ 1.43 µg/mL); MIC-fold improvement vs. vancomycin (S. aureus VISA/HIP5827): 8; MIC-fold improvement vs. vancomycin (MRSA KS89): 2; MIC (MRSA KS89): 0.39 µM (≈ 0.713 µg/mL); IC50 [5]: 185 µM
CN[C@H](CC(C)C)C(=O)N[C@H]1C(=O)N[C@@H](CC(N)=O)C(=O)N[C@H]2C(=O)N[C@H]3C(=O)N[C@H](C(=O)N[C@H](C(=O)NCC(=O)Nc4ccc([N+](=O)[O-])cc4)c4cc(O)cc(O)c4-c4cc3ccc4O)[C@H](O)c3ccc(c(Cl)c3)Oc3cc2cc(c3O[C@@H]2O[C@H](CO)[C@@H](O)[C@H](O)[C@H]2O[C@H]2C[C@](C)(N)[C@H](O)[C@H](C)O2)Oc2ccc(cc2Cl)[C@H]1O [Vanc-67] | 52 ± 19 | 6.25 (≈ 10.2 µg/mL) | 16 | 1 | 0.78 (≈ 1.27 µg/mL) | 25 (≈ 40.7 µg/mL) | 16 | 12.5 (≈ 20.3 µg/mL) | 16 | 25 (≈ 40.7 µg/mL) | 16 | 0.78 (≈ 1.27 µg/mL) | 1 | 165 ± 32 | 2 | 0.39 (≈ 0.634 µg/mL) | 1 | 0.78 (≈ 1.27 µg/mL) | ≥ 250 | 25 (≈ 40.7 µg/mL) | MIC-fold improvement vs. vancomycin (E. faecalis VRE 37): 16; MIC (E. faecalis VSE 1): 0.78 µM (≈ 1.27 µg/mL); MIC-fold improvement vs. vancomycin (E. faecalis VSE 1): 2; MIC (S. aureus VISA/HIP5827): 1.56 µM (≈ 2.54 µg/mL); MIC-fold improvement vs. vancomycin (S. aureus VISA/HIP5827): 4; MIC-fold improvement vs. vancomycin (MRSA KS89): 1; MIC (MRSA KS89): 0.78 µM (≈ 1.27 µg/mL); IC50 [5]: 156 µM
CNC(CC(C)C)C(=O)NC1C(=O)NC(CC(N)=O)C(=O)NC2C(=O)NC3C(=O)NC(C(=O)NC(C(=O)NCC(=O)Nc4ccc(C#CC5CCCC5)cc4)c4cc(O)cc(O)c4-c4cc3ccc4O)C(O)c3ccc(c(Cl)c3)Oc3cc2cc(c3OC2OC(CO)C(O)C(O)C2OC2CC(C)(N)C(O)C(C)O2)Oc2ccc(cc2Cl)C1O (centres unmarked) [Vanc-69] | 55 ± 37 | 1.56 (≈ 2.61 µg/mL) | 64 | 4 | 0.20 (≈ 0.335 µg/mL) | 6.25 (≈ 10.5 µg/mL) | 64 | 3.13 (≈ 5.24 µg/mL) | 64 | 6.25 (≈ 10.5 µg/mL) | 64 | 0.78 (≈ 1.31 µg/mL) | 1 | 29 | 4 | 0.20 (≈ 0.335 µg/mL) | 1 | 0.78 (≈ 1.31 µg/mL) | 185 ± 93 | 6.25 (≈ 10.5 µg/mL) | MIC-fold improvement vs. vancomycin (E. faecalis VRE 37): 64; MIC (E. faecalis VSE 1): 0.78 µM (≈ 1.31 µg/mL); MIC-fold improvement vs. vancomycin (E. faecalis VSE 1): 2; MIC (S. aureus VISA/HIP5827): 0.78 µM (≈ 1.31 µg/mL); MIC-fold improvement vs. vancomycin (S. aureus VISA/HIP5827): 8; MIC-fold improvement vs. vancomycin (MRSA KS89): 4; MIC (MRSA KS89): 0.20 µM (≈ 0.335 µg/mL); IC50 [5]: 90 µM
CNC(CC(C)C)C(=O)NC1C(=O)NC(CC(N)=O)C(=O)NC2C(=O)NC3C(=O)NC(C(=O)NC(C(=O)NCC(=O)Nc4ccc(C#CC5CC5)cc4)c4cc(O)cc(O)c4-c4cc3ccc4O)C(O)c3ccc(c(Cl)c3)Oc3cc2cc(c3OC2OC(CO)C(O)C(O)C2OC2CC(C)(N)C(O)C(C)O2)Oc2ccc(cc2Cl)C1O (centres unmarked) [Vanc-70] | 73 ± 10 | 1.56 (≈ 2.57 µg/mL) | 64 | 4 | 0.20 (≈ 0.329 µg/mL) | 6.25 (≈ 10.3 µg/mL) | 64 | 6.25 (≈ 10.3 µg/mL) | 32 | 6.25 (≈ 10.3 µg/mL) | 64 | 0.78 (≈ 1.28 µg/mL) | 1 | 143 ± 113 | 4 | 0.20 (≈ 0.329 µg/mL) | 4 | 0.20 (≈ 0.329 µg/mL) | ≥ 250 | 6.25 (≈ 10.3 µg/mL) | MIC-fold improvement vs. vancomycin (E. faecalis VRE 37): 64; MIC (E. faecalis VSE 1): 0.78 µM (≈ 1.28 µg/mL); MIC-fold improvement vs. vancomycin (E. faecalis VSE 1): 2; MIC (S. aureus VISA/HIP5827): 0.78 µM (≈ 1.28 µg/mL); MIC-fold improvement vs. vancomycin (S. aureus VISA/HIP5827): 8; MIC-fold improvement vs. vancomycin (MRSA KS89): 2; MIC (MRSA KS89): 0.39 µM (≈ 0.642 µg/mL); IC50 [5]: 155 µM
CN[C@H](CC(C)C)C(=O)N[C@H]1C(=O)N[C@@H](CC(N)=O)C(=O)N[C@H]2C(=O)N[C@H]3C(=O)N[C@H](C(=O)N[C@H](C(=O)NCC(=O)Nc4ccc(Oc5ccccc5)cc4)c4cc(O)cc(O)c4-c4cc3ccc4O)[C@H](O)c3ccc(c(Cl)c3)Oc3cc2cc(c3O[C@@H]2O[C@H](CO)[C@@H](O)[C@H](O)[C@H]2O[C@H]2C[C@](C)(N)[C@H](O)[C@H](C)O2)Oc2ccc(cc2Cl)[C@H]1O [Vanc-71] | 91 ± 36 | 1.56 (≈ 2.61 µg/mL) | 64 | 4 | 0.20 (≈ 0.335 µg/mL) | 6.25 (≈ 10.5 µg/mL) | 64 | 3.13 (≈ 5.24 µg/mL) | 64 | 6.25 (≈ 10.5 µg/mL) | 64 | 0.39 (≈ 0.653 µg/mL) | 2 | 137 ± 41 | 4 | 0.20 (≈ 0.335 µg/mL) | 4 | 0.20 (≈ 0.335 µg/mL) | > 250 | 6.25 (≈ 10.5 µg/mL) | MIC-fold improvement vs. vancomycin (E. faecalis VRE 37): 64; MIC (E. faecalis VSE 1): 0.78 µM (≈ 1.31 µg/mL); MIC-fold improvement vs. vancomycin (E. faecalis VSE 1): 2; MIC (S. aureus VISA/HIP5827): 0.78 µM (≈ 1.31 µg/mL); MIC-fold improvement vs. vancomycin (S. aureus VISA/HIP5827): 8; MIC-fold improvement vs. vancomycin (MRSA KS89): 4; MIC (MRSA KS89): 0.20 µM (≈ 0.335 µg/mL); IC50 [5]: 159 µM
